In patent publication US20170290821A1 (priority 2014, published 2017):
Structures can show the parent of a compound that is named as a salt. Where two headings read alike, the source gives them in different places.

Columns and labels:
[1] = system: influenza virus; assay type: cell-based
[2] = system: HEK293 cells or A549 cells; test: Cell viability with inhibitors (CellTiter-Glo, Example 2), cell line not specified; assay type: cell-based, human; settings: for cell viability: 48 hours
Procedure: Specifically, HEK293 cells or A549 cells were infected with an influenza virus with an MOI of 0.001. Cells 1 hour after the infection were washed and then cultured in a culture solution containing inhibitors, a DMSO solution (final concentration: 1 volume %) was used as a control instead of the inhibitors. […] In addition, a cell viability (%) was calculated using a CellTiter-Glo assay system (commercially available from Promega Corporation) according to the appended instructions. The number of cells cultured in a medium containing the inhibitors with respect to the number of living cells in cells cultured in a medium containing the control (the DMSO solution) was calculated as the cell viability (%).

[3] = system: A549 cells; test: Cell viability with inhibitors (CellTiter-Glo, Example 2), A549; settings: 0.2 μM
Procedure: (§3) In addition, a cell viability (%) was calculated using a CellTiter-Glo assay system (commercially available from Promega Corporation) according to the appended instructions. The number of cells cultured in a medium containing the inhibitors with respect to the number of living cells in cells cultured in a medium containing the control (the DMSO solution) was calculated as the cell viability (%).

[4] = target: T1, adenine nucleotide transporter (ANT) (Homo sapiens, UniProt P05141); settings: cited from earlier work
T1 sequence (P05141 1-298): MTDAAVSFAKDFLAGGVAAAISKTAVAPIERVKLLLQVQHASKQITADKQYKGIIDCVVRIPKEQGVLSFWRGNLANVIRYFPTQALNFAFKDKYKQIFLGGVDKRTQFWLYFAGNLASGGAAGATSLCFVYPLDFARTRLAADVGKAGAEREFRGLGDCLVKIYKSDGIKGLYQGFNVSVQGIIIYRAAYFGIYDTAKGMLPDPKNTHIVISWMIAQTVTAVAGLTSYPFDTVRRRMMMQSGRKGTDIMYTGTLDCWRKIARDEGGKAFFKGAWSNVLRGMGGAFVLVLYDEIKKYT

[5] = system: A549 cells
Procedure: as §3

[6] = Cytotoxicity test (Cell Counting Kit-8), A549; assay type: cell-based; settings: human, A549 cells, read-out: CC50 (50% cytotoxicity concentration) (converted)
[7] = Cytotoxicity test (Cell Counting Kit-8), HEK293; assay type: cell-based, human; settings: human, 293 (HEK293) cells, read-out: CC50 (50% cytotoxicity concentration) (converted)
Procedure: (§1) First, as test compound solutions, test compounds were prepared in 1% dimethylsulfoxide-containing MEMs so that a final concentration was 1000, 100, 10, 1, 0.1, 0.01, or 0.001 μM.
(§2) Cell fluids in which MDCK cells, A549 cells, and HEK293 cells were prepared at concentrations of 6.25×10^5 cells/mL, 2.5×10^6 cells/mL, and 1.25×10^5 cells/mL in minimum essential mediums (MEMs) were added to a 96-well plate at 0.1 ml/well and the cells were seeded. The cells in the 96-well plate were cultured in a carbon dioxide incubator at 37° C. and washed with MEM the day after the seeding date. In the washed cells in the 96-well plate, 0.1 mL of each test compound solution was added to three wells for each concentration and the cells in the 96-well plate were then cultured in a carbon dioxide incubator at 37° C. for 48 hours. After the culture, a Cell Counting Kit-8 solution (commercially available from Dojindo Molecular Technologies, Inc.) was added to each well at 10 μL and culture was additionally performed at 37° C. for several hours. After the culture, an absorbance at 450 nm of a solution of each well in the 96-well plate was measured using a microplate reader. An absorbance value when a solvent (1% dimethylsulfoxide-containing MEM) was added in place of the test compound was set to 100% at which the whole cells survived. A final concentration value of the test compound when an absorbance was 50% was calculated as a 50% cytotoxicity concentration (CC50 value).

[8] = system: HEK293 cells; test: Cytotoxicity test (Cell Counting Kit-8), HEK293; assay type: cell-based, human; settings: 293 (HEK293) cells, 48 hours
Procedure: as §1, §2

[9] = Cytotoxicity test (Cell Counting Kit-8), MDCK; assay type: cell-based, canine; settings: dog, MDCK cells, read-out: CC50 (50% cytotoxicity concentration) (converted)
Procedure: as §1
as §2, with “A final concentration value of the test compound when an absorbance was 50% was calculated as a 50% cytotoxicity concentration (CC50 value).” left out

CC(=O)C(C)=NO [2,3-Butanedione 2-Monoxime]
anti-influenza virus effect [1]: had an anti-influenza virus effect
cell viability ([2]; 30 mM): significantly reduced

CC(C)C[C@H](NC(=O)[C@H](Cc1ccccc1)NC(=O)c1cnccn1)B(O)O [Bortezomib]
virus titer reduced by a common logarithmic value ([1]; 0.2 μM, A549 cells, MOI 0.001, 48 hours): 4 common logarithmic value
cytotoxicity [3]: without showing severe cytotoxicity

C=C1[C@@H]2CC[C@H]3[C@]4(C)C[C@H](O[C@@H]5O[C@H](CO)[C@@H](OS(=O)(=O)O)[C@H](OS(=O)(=O)O)[C@H]5OC(=O)CC(C)C)CC(C(=O)O)(C(=O)O)[C@H]4CC[C@]3(C2)[C@H]1O [Carboxyatractyloside]
Ki [4]: < 0.01 µM

COc1cc2c(c(OC)c1OC)-c1ccc(OC)c(=O)cc1[C@@H](NC(C)=O)CC2 [Colchicine]
virus titer reduced by a common logarithmic value [1]: 2 common logarithmic value
cytotoxicity [5]: without showing severe cytotoxicity

N#C/C(=C\c1ccc(O)c(O)c1)C(=O)NCc1ccccc1 [Compound J4, (E)-N-benzyl-2-cyano-3-(3,4-dihydroxyphenyl)acrylamide]
CC50 at 48 h [6]: 2690 µM

O=C(Nc1c[nH]nc1-c1nc2cc(CN3CCOCC3)ccc2[nH]1)NC1CC1 [Compound J7, 1-cyclopropyl-3-(3-(5-(morpholinomethyl)-1H-benzo[d]imidazol-2-yl)-1H-pyrazol-4-yl) urea]
CC50 at 48 h [6]: > 316 µM

N#CCNC(=O)c1ccc(-c2ccnc(Nc3ccc(N4CCOCC4)cc3)n2)cc1 [Compound J8, N-(cyanomethyl)-4-(2-(4-morpholinophenylamino)pyrimidin-4-yl)benzamide]
CC50 at 48 h ([7]; HEK293 cells): > 316 µM

CN1CCN(c2cccc(Nc3nc4c(-c5ccc(S(C)(=O)=O)cc5)cccn4n3)c2)CC1 [Compound J11]
CC50 (50% cytotoxicity concentration) [8]: >5.5 log10, nM

Fc1cc(-c2cccc3ncc(-c4cnn(C5CCNCC5)c4)nc23)cc(F)c1CN1CCOCC1 [Compound J13, 8-(3,5-difluoro-4-(morpholinomethyl)phenyl)-2-(1-(piperidin-4-yl)-1H-pyrazol-4-yl)qui noxaline]
CC50 at 48 h ([7]; HEK293 cells): 20.9 µM

CC(C)N(CCC(=O)c1ccc2ccccc2c1)Cc1ccccc1 [Compound J15, 1-propanone, 3-[(1-methylethyl)(phenylmethyl)amino]-1-(2-naphthalenyl)-, hydrochloride (1:1)]
CC50 at 48 h ([7]; HEK293 cells): 47.9 µM

O=C(Nc1nc2cccc(-c3ccc(CN4CCS(=O)(=O)CC4)cc3)n2n1)C1CC1 [Compound J19, N-[5-[4-[(1,1-dioxido-4-thiomorpholinyl)methyl]phenyl][1,2,4]triazolo[1,5-a]pyridin-2-yl]cyclopropanccarboxamidc]
CC50 at 48 h [9]: > 316 µM
CC50 at 48 h [6]: > 316 µM
CC50 at 48 h ([7]; HEK293 cells): > 316 µM

COc1cc2ncnc(Nc3ccc(O)cc3)c2cc1OC [Compound J20, 4-[(6,7-dimethoxy-4-quinazolinyl)amino]-phenol]
CC50 at 48 h ([7]; HEK293 cells): > 316 µM

Cl.Cl.Fc1cc(-c2cccc3ncc(-c4cnn(C5CCNCC5)c4)nc23)cc(F)c1CN1CCOCC1 [Compound J21, 4-[[2,6-difluoro-4-[3-(1-piperidin-4-ylpyrazol-4-yl)quinoxalin-5-yl]phenyl]methyl]morpholine; dihydrochloride]
CC50 at 48 h [7]: 38.9 µM

CN1C/C=C/CCOc2cccc(c2)-c2ccnc(n2)Nc2cccc(c2)C1 [Compound J23, 20-oxa-5,7,14,27-tetraazatetracyclo[19.3.1.12,6.18, 12]heptacosa-1(25),2,4,6(27),8,10,12(26),16,21,23-decane,14-methyl-]
CC50 at 48 h [9]: 7.94 µM
CC50 at 48 h [6]: 35.5 µM
CC50 at 48 h ([7]; HEK293 cells): 52.5 µM

CCC[C@H](NC(=O)/C(C#N)=C/c1cccc(Br)n1)c1ccccc1 [Compound J25, (2E)-3-(6-bromo-2-pyridinyl)-2-cyano-N-[1S-phenylbutyl]-2-propenamide]
anti-influenza virus effect [1]: had an anti-influenza virus effect
cell viability ([2]; 50 μM): significantly reduced
CC50 (50% cytotoxicity concentration) [8]: 3.69 log10, nM

O=c1c(-c2ccc(O)cc2)coc2cc(O)cc(O)c12 [Genistein]
anti-influenza virus effect [1]: had an anti-influenza virus effect

Fc1cc(F)c2c(c1)C1C=CCC1C(c1cccnc1)N2 (centres unmarked) [Golgicide A]
anti-influenza virus effect [1]: had an anti-influenza virus effect
effect on virus titer [1]: significantly reduced a virus titer
toxicity to host cells ([2]; summary of Example 2): relatively low toxicity to host cells

O=C1/C(=C/c2ccc(O)c(Br)c2)CCC/C1=C\c1ccc(O)c(Br)c1 [Histone acetyltransferase inhibitor II]
anti-influenza virus effect [1]: had an anti-influenza virus effect
